Each block holds one molecule with its values, some of them ahead of it.
Key:
[1] = tested on: MDA-MB-231 (human breast cancer); assay: MTT cytotoxicity assay, MDA-MB-231; assay type: cell-based; conditions: Homo sapiens, MDA-MB-231 cells, 50% cell growth inhibition after 72 h of drug exposure
Experimental: (§1) The cytotoxic activities of target compounds were evaluated against HT-29 (human colon cancer), MDA-MB-231 (human breast cancer), U87MG (human glioblastoma), H460 (human lung cancer), A549 (non-small-cell lung adenocarcinoma), HL-60 (human leukemic) cancer cell lines and one normal cell line WI-38 (human fetal lung fibroblasts) together with references DHA and cisplatin by a MTT assay.
(§2) The cytotoxic activities of compounds 3a–h and 6a–j were evaluated with the HT-29, MDA-MB-231, U87MG, H460, A549, HL-60 cancer cell lines and one normal cell line, WI-38, by the standard MTT assay in vitro [20], with DHA as the positive control. The cell lines were cultured in minimum essential medium (MEM) supplement with 10% fetal bovine serum (FBS). Approximately 4 × 10^3 cells, suspended in MEM medium, were plated on to each well of a 96-well plate and incubated in 5% CO2 at 37 °C for 24 h. The test compounds at indicated final concentrations were added to the culture medium and the cell cultures were continued for 72 h. Fresh MTT was added to each well at a terminal concentration of 5 μg/mL and incubated with cells at 37 °C for 4 h. The formazan crystals were dissolved in 100 μL DMSO each well, and the absorbency at 492 nm (for absorbance of MTT formazan) and 630 nm (for the reference wavelength) was measured with the ELISA reader. All of the compounds were tested twice in each of the cell lines. The results expressed as IC50 (inhibitory concentration 50%) were the averages of two determinations and calculated using the Bacus Laboratories Incorporated Slide Scanner (Bliss) software.

[2] = tested on: HT-29 (human colon cancer); assay: MTT cytotoxicity assay, HT-29; assay type: cell-based; conditions: Homo sapiens, HT-29 cells, 50% cell growth inhibition after 72 h of drug exposure, read-out: IC50(μM) HT29
Experimental: as §1, §2

[3] = tested on: U87MG (human glioblastoma); assay: MTT cytotoxicity assay, U87MG; assay type: cell-based; conditions: Homo sapiens, U-87 MG; U87MG cells, 50% cell growth inhibition after 72 h of drug exposure, MTT
Experimental: as §1, §2

H460 (human lung cancer) = assay: MTT cytotoxicity assay, H460; assay type: cell-based; conditions: Homo sapiens, NCI-H460; H460 cells, 50% cell growth inhibition after 72 h of drug exposure, MTT
Experimental: as §1, §2

[4] = tested on: A549 (non-small-cell lung adenocarcinoma); assay: MTT cytotoxicity assay, A549; assay type: cell-based, human; conditions: Homo sapiens, A549 cells, 50% cell growth inhibition after 72 h of drug exposure
Experimental: as §1, §2

HL-60 (human leukemic) = assay: MTT cytotoxicity assay, HL-60; assay type: cell-based; conditions: Homo sapiens; HL-60 cells, 50% cell growth inhibition after 72 h of drug exposure, MTT
Experimental: as §1, §2

[5] = tested on: WI-38 (human fetal lung fibroblasts); assay: MTT cytotoxicity assay, normal cell line WI-38; assay type: cell-based; conditions: Homo sapiens, normal WI-38 cells, 50% cell growth inhibition after 72 h of drug exposure, read-out: IC50(μM) WI38
Experimental: as §1, §2

SMILES: C[C@@H]1CC[C@H]2[C@@H](C)C(OCCNC(=O)c3ccc(COc4ccc(/C=C/S(=O)(=O)Nc5ccc(Cl)cc5)cc4)cc3)O[C@@H]3O[C@@]4(C)CC[C@@H]1[C@]32OO4 (stereo partly drawn) [Compound 6f, (E)-N-(2-(10β-Dihydroartemisinoxy)ethyl)-4((4-(2-(N-(4-chlorophenyl)sulfamoyl)vinyl)phenoxy)methyl)benzamide]
- IC50 [1]: 2.38 µM
- IC50 [2]: 0.92 µM
- IC50 [3]: 1.59 µM
- IC50 (H460 (human lung cancer)): 1.77 µM
- IC50 [4]: 5.72 µM
- IC50 (HL-60 (human leukemic)): 1.33 µM
- IC50 [5]: 24.7 µM
- melting point: 138 to 141 °C

SMILES: COc1cccc(NS(=O)(=O)/C=C/c2ccc(OCc3ccc(C(=O)NCCOC4O[C@@H]5O[C@@]6(C)CC[C@H]7[C@H](C)CC[C@@H]([C@H]4C)[C@@]57OO6)cc3)cc2)c1 (stereo partly drawn) [Compound 6i, (E)-N-(2-(10β-Dihydroartemisinoxy)ethyl)-4((4-(2-(N-(3-methoxyphenyl)sulfamoyl)vinyl)phenoxy)methyl)benzamide]
- IC50 [1]: 8.89 µM
- IC50 [2]: 8.95 µM
- IC50 [3]: > 100 µM
- IC50 (H460 (human lung cancer)): 16.3 µM
- IC50 [4]: 11.3 µM
- IC50 (HL-60 (human leukemic)): 8.53 µM
- IC50 [5]: 19.2 µM
- melting point: 144 to 145 °C

SMILES: C[C@@H]1CC[C@H]2[C@@H](C)C(OCCNC(=O)c3ccc(COc4ccc(/C=C/S(=O)(=O)Nc5ccc(F)c(C(F)(F)F)c5)cc4)cc3)O[C@@H]3O[C@@]4(C)CC[C@@H]1[C@]32OO4 (stereo partly drawn) [Compound 6j, (E)-N-(2-(10β-Dihydroartemisinoxy)ethyl)-4((4-(2-(N-(3-trifluoromethyl-4fluorophenyl)sulfamoyl)vinyl)phenoxy)methyl)benzamide]
- IC50 [1]: 1.05 µM
- IC50 [2]: 0.38 µM
- IC50 [3]: 3.27 µM
- IC50 (H460 (human lung cancer)): 5.31 µM
- IC50 [4]: 2.78 µM
- IC50 (HL-60 (human leukemic)): 1.27 µM
- IC50 [5]: 30.4 µM
- melting point: 152 to 154 °C

The next lines start with results.

- melting point: 143 to 145 °C
SMILES: Cc1ccccc1NS(=O)(=O)/C=C/c1ccc(OCc2ccc(C(=O)NCCOC3O[C@@H]4O[C@@]5(C)CC[C@H]6[C@H](C)CC[C@@H]([C@H]3C)[C@@]46OO5)cc2)cc1 (stereo partly drawn) [Compound 6e, (E)-N-(2-(10β-Dihydroartemisinoxy)ethyl)-4((4-(2-(N-(2-methylphenyl)sulfamoyl)vinyl)phenoxy)methyl)benzamide]
- IC50 [1]: 2.1 µM
- IC50 [2]: 2.09 µM
- IC50 [3]: 3.65 µM
- IC50 (H460 (human lung cancer)): 1.92 µM
- IC50 [4]: 5.47 µM
- IC50 (HL-60 (human leukemic)): 3.21 µM
- IC50 [5]: 16.4 µM

- melting point: 147 to 150 °C
SMILES: C[C@@H]1CC[C@H]2[C@@H](C)C(OCCNC(=O)c3ccc(COc4ccc(/C=C/S(=O)(=O)Nc5ccccc5Cl)cc4)cc3)O[C@@H]3O[C@@]4(C)CC[C@@H]1[C@]32OO4 (stereo partly drawn) [Compound 6g, (E)-N-(2-(10β-Dihydroartemisinoxy)ethyl)-4((4-(2-(N-(2-chlorophenyl)sulfamoyl)vinyl)phenoxy)methyl)benzamide]
- IC50 [1]: 0.72 µM
- IC50 [2]: 0.45 µM
- IC50 [3]: 2.69 µM
- IC50 (H460 (human lung cancer)): 0.89 µM
- IC50 [4]: 5.31 µM
- IC50 (HL-60 (human leukemic)): 0.27 µM
- IC50 [5]: 27.2 µM

- melting point: 151 to 153 °C
SMILES: C[C@@H]1CC[C@H]2[C@@H](C)C(OCCNC(=O)c3ccc(COc4ccc(/C=C/S(=O)(=O)Nc5c(Cl)cccc5Cl)cc4)cc3)O[C@@H]3O[C@@]4(C)CC[C@@H]1[C@]32OO4 (stereo partly drawn) [Compound 6h, (E)-N-(2-(10β-Dihydroartemisinoxy)ethyl)-4((4-(2-(N-(2,6-dichlorophenyl)sulfamoyl)vinyl)phenoxy)methyl)benzamide]
- IC50 [1]: 0.88 µM
- IC50 [2]: 0.44 µM
- IC50 [3]: 3.12 µM
- IC50 (H460 (human lung cancer)): 1.21 µM
- IC50 [4]: 2.34 µM
- IC50 (HL-60 (human leukemic)): 0.18 µM
- IC50 [5]: 23.5 µM

Source: PMC6270595, “Synthesis and Cytotoxicity of Novel 10-Substituted Dihydroartemisinin Derivatives Containing N-Arylphenyl-ethenesulfonamide Groups” (Molecules, 2013)
